From US12298319B2, “Method for measuring alpha value of muscarinic M1 receptor positive allosteric modulators” (Takeda Pharmaceutical Company Limited, priority 2017, dated 2025) come the findings set out here.

The test system of one test is isolated mouse ileum. Put plainly: In vitro Magnus method, spontaneous ileum motility. The following applies: cumulative concentrations. The method, then:
After overnight fasting, mice were sacrificed. The ileum was quickly dissected out and suspended in ice-cold Krebs solution with the following composition (in mM): NaCl, 120.7; KCl, 5.9; CaCl2, 2.5; MgCl2, 1.2; NaHCO3, 15.5; NaH2PO4, 1.2; and glucose, 11.5. Longitudinal segments of ileum (10-15 mm long) were detached of mesentery and adipose tissue, and mounted in organ baths containing 10 mL of Krebs solution aerated with 95% O2/5% CO2. Bath temperature was maintained at 37° C. The isolated ileum was given a passive load of 0.5 g. The contractile response of the isolated ileum was continuously recorded with isometric transducer (MLT050/A, ADInstruments, New South Wales, Australia) and recorder (PowerLab 8/30 ML870 and Octal Bridge Amp ML228, ADInstruments). […]
The contraction was measured as the maximum strength from the baseline. The effects of experimental substances on the maximum contraction were measured. […] The effect of each concentration of the compounds on ileum spontaneous contraction induced was calculated from the average value of 6 responses of the maximum strength. Then the ileum contractile response was expressed as a ratio of the mean maximum contraction to that obtained with the pre-treated DMSO (solvent). […] Due to very small size of relaxations, the effects of the compounds on them was not be analyzed.

For a further test, the target named is T1, M2R (Homo sapiens, UniProt P08172).
T1 sequence (P08172 1-466): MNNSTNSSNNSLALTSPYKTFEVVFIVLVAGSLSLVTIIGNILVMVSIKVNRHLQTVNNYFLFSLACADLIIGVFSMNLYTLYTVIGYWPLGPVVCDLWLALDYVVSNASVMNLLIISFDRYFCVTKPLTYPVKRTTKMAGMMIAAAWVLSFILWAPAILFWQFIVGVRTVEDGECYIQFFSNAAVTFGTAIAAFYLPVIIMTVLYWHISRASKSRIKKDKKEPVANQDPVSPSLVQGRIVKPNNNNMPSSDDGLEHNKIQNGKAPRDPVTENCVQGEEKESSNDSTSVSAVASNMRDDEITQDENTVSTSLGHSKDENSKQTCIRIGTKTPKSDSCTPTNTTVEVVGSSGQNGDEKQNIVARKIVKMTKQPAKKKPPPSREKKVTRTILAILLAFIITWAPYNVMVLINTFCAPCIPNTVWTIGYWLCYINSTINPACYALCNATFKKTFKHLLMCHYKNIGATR
In words: Ca2+ flux assay in CHO-K1 cells expressing human M2R. Type of test: cell-based. Also on record: expressed in transfected cells; host or cells: CHO-K1. The following applies: read-out: IP for M2R. For orientation: A change in cytosolic calcium serves as a functional read-out for many receptors and channels.

Test [1] relates to scopolamine-induced cognitive deficits in rats. In words: Novel object recognition task (NORT), scopolamine-induced memory deficits. Format: in vivo, rat. The following applies: for minimal efficacy dose in rats (cognitive improvement): NORT, p.o.; for minimal efficacy dose in rats (cognitive improvement) / NDI: scopolamine-treated rats. On the procedure:
On the day before testing, Long Evans rats were allowed to habituate to the behavioral test room environment for over 1 h, and then they were allowed to habituate to the empty test box (a gray-colored polyvinyl chloride box (40×40×50 cm)) for 10 min individually. Testing was comprised of two 3-min trials called the acquisition and the retention trials. These trials were separated by a given inter-trial interval (ITI). On the testing day, in the acquisition trial, rats were allowed to explore two identical objects (A1 and A2) for 3 min. In the retention trial, rats were again allowed to explore a familiar object (A3) and a novel object (B) for 3 min. The object exploration was defined as rats' licking, sniffing or touching the object with limbs while sniffing. Leaning against the object to look upward, standing or sitting on the object was excluded. The exploration time of each object (A1, A2, A3 and B) in each trial was measured manually. Novel discrimination index (NDI) was calculated using the following equation: novel object interaction/total interaction×100(%).
The acquisition and the retention trials were separated by 4 h ITI. […] Scopolamine (0.1 mg/kg) was administered subcutaneously 30 min prior to the acquisition trial.
(§1) The acquisition and the retention trials were separated by 4 h ITI.
as §1

In another test the target is T2, M4R (Homo sapiens, UniProt P08173).
T2 sequence (P08173 1-479): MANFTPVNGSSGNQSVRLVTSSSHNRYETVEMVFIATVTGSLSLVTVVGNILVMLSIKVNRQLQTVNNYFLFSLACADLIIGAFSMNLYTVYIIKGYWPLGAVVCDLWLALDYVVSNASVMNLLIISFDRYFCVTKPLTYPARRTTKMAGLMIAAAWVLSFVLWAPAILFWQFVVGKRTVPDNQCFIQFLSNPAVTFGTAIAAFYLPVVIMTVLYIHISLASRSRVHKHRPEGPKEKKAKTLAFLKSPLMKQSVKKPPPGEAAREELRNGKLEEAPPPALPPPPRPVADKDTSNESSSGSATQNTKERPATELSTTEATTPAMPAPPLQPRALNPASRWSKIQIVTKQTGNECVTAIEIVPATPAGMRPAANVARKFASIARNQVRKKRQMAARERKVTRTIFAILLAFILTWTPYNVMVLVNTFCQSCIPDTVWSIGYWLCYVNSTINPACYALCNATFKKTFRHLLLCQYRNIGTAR
Put plainly: Ca2+ flux assay in CHO-K1 cells expressing human M4R. The following applies: read-out: IP for M4R. Format: cell-based. Also on record: expressed in transfected cells; host or cells: CHO-K1.

In test [2] the test system is Arc mRNA expression in mouse hippocampus. Put plainly: Arc mRNA expression in hippocampus (RT-PCR, PD marker). Format: in vivo. The following applies: 90 min after treatment. On the procedure: For in vivo pharmacodynamics (PD) marker analysis, mice were sacrificed by decapitation at 90 min after administration of Compound A or Compound B. Hippocampal tissues were isolated from the brain. These tissues were stored at -80° C. until RNA extraction. Total RNA from individual tissues was extracted using QIAzol Lysis Reagent and the RNeasy kit (Quiagen, Hilden, Germany) following the manufacturer's instruction. RT-PCR was carried out using ABI PRISM 7900HT sequence detection system (Life Technologies, Bedford, MA) and TagMan reagents (Eurogentec, Seraing, Belgium). RNA quantities were normalized using glyceraldehyde-3-phosphate dehydrogenase (GAPDH) mRNA transcripts according to manufacturer's instruction. The following primers were used for mouse Arc analysis: forward primer, [NT] ID NO:3); reverse primer, [NT] ID NO:4), TagMan probe, [NT] ID NO:5). The primers used for mouse Gapdh analysis were TagMan Rodent GAPDH Control Reagent, VIC probe, purchased from ABI (Applied biosystems-Life Technologies, Waltham, MA).

Take `Cn1cc(-c2ccc(Cc3cc4c(=O)n([C@H]5CCCC[C@@H]5O)cnc4c4ccccc34)cn2)cn1` [Compound C, 3-((1S,2S)-2-hydroxycyclohexyl)-6-((6-(1-methyl-1H-pyrazol-4-yl)pyridin-3-yl)methyl)benzo[h]quinazoline-4(3H)-one, reference compound]: the spontaneous ileum motility entry with isolated mouse ileum is listed as “strengthened the spontaneous ileum motility in a concentration-dependent manner”. The EC50 at M2R and at M4R was greater than 1 µM in each case. Besides, the “scopolamine-induced cognitive deficits in NORT” value in test [1] (0.1 and 0.3 mg/kg p.o., rats, P≤0.025) is listed as “significantly ameliorated scopolamine-induced cognitive deficits”. For the same compound, the “minimal efficacy dose in rats (cognitive improvement)” value in test [1] is 0.1 mg/kg. Further, the NDI in test [1] (Compound C 0.03 mg/kg p.o. alone, Example 29) was 52.3%.

With `Cc1c(Cc2ccc(-n3cccn3)cc2)cc2c(c1F)CN([C@H]1COCC[C@@H]1O)C2=O` [Compound D, 4-fluoro-2-[(3S,4S)-4-hydroxytetrahydro-2H-pyran-3-yl]-5-methyl-6-[4-(1H-pyrazol-1-yl)benzyl]-2,3-dihydro-1H-isoindol-1-one], the spontaneous ileum motility result in the test on isolated mouse ileum is given as “lower impact on ileum motility”. The EC50 at M2R and on M4R was greater than 10 µM in each case. In test [1] (0.3, 1, and 3 mg/kg p.o., rats, P≤0.025), the “NDI in NORT, scopolamine-induced deficits” value was “significantly increased NDI”. Moreover, the “minimal efficacy dose in rats (cognitive improvement)” value in test [1] was 0.3 mg/kg. For the same compound, the NDI in test [1] (0.1 mg/kg p.o. alone, Example 28) was found to be 54.1%; in test [1] (Compound D 0.1 mg/kg p.o. alone, Example 31) it was 56.8%.

For `Cn1ccc(-c2ccc(CN3Cc4cccc(O[C@H]5CCCC[C@@H]5O)c4C3=O)cc2)n1` [Compound A, 7-(((1S,2S)-2-hydroxycyclohexyl)oxy)-2-(4-(1-methyl-1H-pyrazol-3-yl)benzyl)isoindolin-1-one], the “Arc mRNA expression level in mouse hippocampus” value in test [2] (30 mg/kg p.o.) is listed as “significant increase”; in test [2] (3-30 mg/kg p.o.) it was “enhanced the expression level of Arc mRNA in a dose-dependent manner”.

As to `Cn1cc(-c2ccc(CN3Cc4cccc(Oc5c(F)cccc5C#N)c4C3=O)cc2)cn1` [Compound B, 3-fluoro-2-((2-(4-(1-methyl-1H-pyrazol-4-yl)benzyl)-3-oxo-2,3-dihydro-1H-isoindol-4-yl)oxy)benzonitrile], the “increase in Arc mRNA expression level in mouse hippocampus” value in test [2] (10-100 mg/kg p.o.) was “about 2 fold”.
